Here are results for one compound from PMC8573827, “Zinc protoporphyrin binding to telomerase complexes and inhibition of telomerase activity” (Pharmacology Research & Perspectives, 2021).

Test [1] concerns Huh7 cells. Nature of the test: MTT cell proliferation/viability assay, Huh7. Format: cell-based, human. To be noted: Huh7, 10 µM MPP, 48 h. The protocol:
(§1) MPPs were tested for effects on cell proliferation and viability using MTT (3‐(4,5‐dimethylthiazol‐2‐yl)‐2,5‐diphenyltetrazolium bromide) dye conversion assay (Cell Titer 96, Promega) as we described[22] with some modifications. Cells were plated into 96 well plates and allowed to attach overnight. MPPs were added to the cultures and then incubated for the times indicated. At assay time, MTT reagent was added and absorbance measured at 570 nm. Controls included buffer blanks containing MPP because of background absorbances reported for MPPs by us[22] and others.[23] The formula used for determination of viable cells relative to controls was: %viablecells=(abssample‐absblank)/(absconrtrol‐absblank)×100

For test [2], the system named is Hek293 cells. Nature of the test: MTT cell proliferation/viability assay, Hek293. Format: cell-based, human. Conditions: Hek293, 10 µM MPP, 48 h. Here is the method:
as §1

The subject of test [3] is U2OS cells. Nature of the test: MTT cell proliferation/viability assay, telomerase negative U2OS. The class given is cell-based, human. To be noted: 48 h. Here is the method:
as §1

In test [4] the test system is TERT transfected U2OS cells. Nature of the test: MTT viability assay in U2OS cells transfected with human TERT. Format: cell-based. Conditions: U2OS transfected with pCI neo-hEST2, ZnPP 48 h. Here is the method: Lipofectamine^T ^M 2000 (ThermoFisher) was used for all transfections and closely followed the manufacturer's protocol. For TERT overexpression the catalytically active TERT plasmid pCI neo‐hEST2, a gift from Dr. Robert Weinberg (Addgene plasmid # 1781)[19] was used. Telomerase RNA component (TERC) plasmid (pBS U3‐hTR‐500) was also obtained from Addgene (plasmid # 28170), a gift from Dr. Kathleen Collins.[20], [21]
as §1

Test [5] relates to Huh7 cells. Nature of the test: DNA synthesis, 3H-thymidine incorporation, Huh7. To be noted: Huh7, 10 µM MPP, 24–72 h. Format: cell-based, human. Here is the method: (§2) Semi‐quantitative differences in DNA synthesis were determined by measuring ^3H‐thymidine uptake into whole cells in log phase growth. At indicated time points, cell cultures were washed with serum‐free, thymidine deficient medium, then incubated with fresh medium containing 1 μCi/ml of ^3H‐thymidine for two hours at 37°C. Cultures were washed twice with PBS while attached to dishes, then lysed with 0.5 M NaOH and the relative amount of ^3H‐thymidine quantified by scintillation counting.

Test [6] relates to Hek293 cells. Nature of the test: DNA synthesis, 3H-thymidine incorporation, Hek293. Format: cell-based, human. To be noted: Hek293, 10 µM MPP, 24–72 h. The protocol: as §2
(Dividing cells build labelled thymidine or BrdU into new DNA.)

Test [7] relates to Huh7 cells. Nature of the test: Annexin V apoptosis assay, Huh7. To be noted: Huh7, 10 µM, 48 h. The class given is cell-based, human. The protocol: (§3) For detection of MPP apoptotic effects, cells were treated with MPPs (0, 2.5, 5 and 10 µM) for 48 h and assayed using PE Annexin V Apoptosis Detection Kit (Cat. No. 559763, BD Biosciences) as recommended by the manufacturer.
In test [8] the test system is Hek293 cells. Nature of the test: Annexin V apoptosis assay, Hek293. Format: cell-based, human. Conditions: Hek293, 10 µM, 48 h. Here is the method:
as §3

The subject of test [9] is U2OS cells. Nature of the test: Annexin V apoptosis assay, U2OS. The class given is cell-based, human. Conditions: 48 h. Here is the method:
as §3

The test system of test [10] is TERT, β-catenin, and cyclin D1 expression. Nature of the test: Western blot of proliferative proteins in Huh7 cells. Format: cell-based, human. Conditions: Huh7, 48 h. Here is the method: For SDS ‐PAGE, cellular lysates, and protein preparations such as IP were dissolved in Laemmli buffer, boiled for 1 min and separated on denaturing SDS gels as described.[28] After electrophoretic transfer of separated proteins to nitrocellulose sheets, western blot immunoassays employed enhanced chemiluminescence for signal detection (ECL^TM Prime, Amersham).[28]

Another test addresses T1, Taq DNA polymerase (Thermus aquaticus, UniProt P19821).
T1 construct: purchased Perkin‐Elmer Cetus, Norwalk, CT
Nature of the test: Taq polymerase inhibition test, MPP added after the telomerase extension step of TRAP. Conditions: TRAP, MPP added for the amplification steps only. The class given is biochemical. The protocol:
For TRAP assay, a Quantitative Telomerase Detection Kit (US Biomax, Inc) was used to assay cellular lysates or TERT immunoprecipitates (IP) according to the manufacturer's directions. Relative telomerase activity was derived from a standard curve of reference samples and data were analyzed using relative fluorescence units as compared to controls. In some cases, telomerase reaction products were visualized and quantified with TRAPeze system (EMD/Millipore). After separation of the DNA products using 10% non‐denaturing PAGE and SYBR fluorescence labeling [1x SYBR safe DNA gel stain (Invitrogen)], gel bands were imaged with iBright 1500 (Invitrogen). The intensity of the sample's TRAP ladder and internal control was first measured using GelAnalyzer [GelAnalyzer 19.1 (www.gelanalyzer.com )] as recommended. Then, the relative telomerase activity was determined by the ratio of the intensity of the sample's TRAP ladder (telomerase products, TP) to that of the internal control (IC) band.
Because of concerns that some quadruplex ligands inhibit Taq DNA polymerase in addition to telomerase, we assayed MPP inhibition at both steps of the TRAP procedure with a strategy similar to that of others.[36] Using equivalent extracts but separate assays, MPP was either included in the telomerase RT extension step or the extension step was conducted without MPP and then MPP added only for the amplification steps with Taq DNA polymerase. To avoid further potential errors introduced by Real‐time quantification, TRAP products were labeled with SYBR green, visualized on denaturing gels, and each lane was quantified by density measurements as described in the Methods. The latter step also ruled out the possibility that decreases in activity were artifactual due to fluorescence signal quenching by some MPPs.[37] […] All three MPPs had minimal effects on Taq polymerase […] and the slight inhibition of Taq polymerase seen for ZnPP was not directly concentration‐dependent.
Enzymatic extracts were prepared from semi-confluent Huh7 cells and aliquots were assayed in triplicate using TRAP assay. CoPP was added to RT-PCR reactions either before or after the RT telomere elongation step to test whether it inhibited Taq polymerase. Visualization of amplified telomeric products was on 12% denaturing gels using SYBR fluorescence labelling (upper panels). Quantification was with densitometry as described in Methods and plot shown (lower panel). Plotted points represent the mean +/- SD with n =3. (IC)= internal Taq polymerase control.

Test [11] deals with high molecular weight complexes containing telomerase. Nature of the test: Fluorescent labelling of cellular lysate complexes on non-denaturing 0.8% agarose gels. Format: binding, human. Conditions: Huh7 lysates, fluorescence visualization. The protocol:
0.8% Agarose gels were run in Tris‐Borate‐EDTA buffer using standard slab gels as described for high molecular weight complexes.[27] Cell lysates were produced by lysing Hek293 and Huh7 cells in NP40 buffer (25 mM HEPES‐KOH, 150 mM KCl, 1.5mM MgCl2, 10% glycerol, 0.5% NP40, 5 mM 2ME, pH 7.5 supplemented with protease inhibitors) for 30 min on ice. Extracts were clarified by centrifugation for 16 000 g for 10 min. The protein concentration was determined by Bradford assay. The indicated amounts of proteins were treated with different amounts of ZnPP for 2 h on ice, and then separated on 0.8% Agarose gels prepared with 0.5xTris‐Borate‐EDTA (TBE) buffer. The gels were run at 100 V for 2 h at 4 °C in 0.5x TBE buffer. […] No antibody and normal rabbit IgG (sc‐2027, Santa Cruz Biotechnology) were included as controls. The IP products were treated with ZnPP and electrophoresed as above. Free ZnPP and ZnPP bound to large complexes were visualized using a wide‐wavelength UV lightbox or with red fluorescence using excitation (EX) 608–632 nm and emission (EM) 675–720 nm. Thyroglobulin (670 kD), a heavy MW marker, was run in parallel lanes and visualized with Coomassie Blue staining or fluorescence to size the complexes. In some cases, cell lysates or IP were incubated with RNase A (Life Technologies, NY); or DNase 1 (Qiagen, CA) 100 µg/ml for 1 h at 4 °C prior to electrophoresis.

T1 sequence (P19821 whole entry): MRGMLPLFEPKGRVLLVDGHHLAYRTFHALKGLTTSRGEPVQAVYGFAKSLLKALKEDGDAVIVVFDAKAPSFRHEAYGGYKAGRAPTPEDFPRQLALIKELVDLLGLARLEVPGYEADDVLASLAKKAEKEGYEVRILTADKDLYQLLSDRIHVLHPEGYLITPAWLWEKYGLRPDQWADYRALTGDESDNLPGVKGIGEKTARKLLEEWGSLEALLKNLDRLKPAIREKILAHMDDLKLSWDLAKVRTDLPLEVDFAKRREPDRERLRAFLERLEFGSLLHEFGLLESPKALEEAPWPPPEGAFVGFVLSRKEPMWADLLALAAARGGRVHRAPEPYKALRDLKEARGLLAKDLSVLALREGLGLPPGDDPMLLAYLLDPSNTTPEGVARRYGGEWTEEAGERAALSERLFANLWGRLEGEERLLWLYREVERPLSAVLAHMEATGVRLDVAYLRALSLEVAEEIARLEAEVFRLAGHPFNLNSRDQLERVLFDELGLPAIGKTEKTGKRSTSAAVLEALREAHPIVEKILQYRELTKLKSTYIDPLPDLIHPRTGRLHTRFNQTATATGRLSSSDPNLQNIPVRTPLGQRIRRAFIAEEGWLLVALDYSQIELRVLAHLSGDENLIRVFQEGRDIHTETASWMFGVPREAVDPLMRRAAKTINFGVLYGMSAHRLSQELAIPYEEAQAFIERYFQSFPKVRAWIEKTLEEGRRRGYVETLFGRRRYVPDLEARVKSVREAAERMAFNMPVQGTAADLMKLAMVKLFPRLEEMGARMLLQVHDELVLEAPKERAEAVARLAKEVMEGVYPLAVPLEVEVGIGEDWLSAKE

For the compound `C=CC1=C(C)c2cc3[n-]c(cc4nc(cc5[n-]c(cc1n2)c(C)c5C=C)C(C)=C4CCC(=O)O)c(CCC(=O)O)c3C.[Zn+2]` [ZnPP, zinc protoporphyrin], the “Depression of cellular proliferation relative to vehicle only controls” value with Huh7 cells [1] and in the test with Hek293 cells [2] was “greater than 50%” each time. The “Effect on proliferation in telomerase negative cells” value in the test with U2OS cells [3] is “only minor effects on proliferation”. Moreover, the “Sensitivity of viability after TERT transfection” value in [4] is on record as “restored ZnPP sensitivity”. Besides, the “Effect on DNA synthesis (3H-thymidine incorporation)” value in the test on Huh7 cells [5] and with Hek293 cells [6] was “severely attenuated DNA synthesis” in each case. In addition, the Apoptosis with Huh7 cells [7] and in the test with Hek293 cells [8] was about 50% throughout. The “Effect on apoptosis in telomerase negative cells” value in the test on U2OS cells [9] was “failed to have an increased effect on apoptosis”. For the same compound, the “Effect on expression of TERT, β-catenin and cyclin D1 (western blot)” value in test [10] was “nearly eliminated”. In addition, on Taq DNA polymerase, the “Effect on Taq polymerase” value is “minimal inhibition”. In addition, in [11], the “Labelling/binding of cellular complexes on agarose gels” value was “bound to high molecular weight complexes in a concentration dependent manner”.
